Results: paper PMC8847695 (Frontiers in Chemistry, 2022)
Entries after “also recorded” stand apart in the source; their conditions may differ.

How the values were obtained:
AAK1 (121-471) = AAK1 (121-471) (Homo sapiens, UniProt Q2M2I8); assay: STD-NMR fragment screening, AAK1; assay type: binding; details: 1 mM fragment, 20 µM protein; hit if peak in difference spectrum three times higher than local noise
Outline: (§1)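 Saturation-transfer difference NMR was run at 25°C and 700 MHz with 20 µM protein, two fragments at 1 mM each, and 10% DMSO-d6. On-resonance saturation was at 0.5–0.6 ppm and off-resonance at 40 ppm, with a 3 s Gaussian-pulse train. A hit required a difference-spectrum peak at least three times the local noise.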

CAMK1G (1-320) = target: T1, CAMK1G (1-320) (Homo sapiens, UniProt Q96NX5); assay: STD-NMR fragment screening, CAMK1G; assay type: binding; details: 1 mM fragment, 20 µM protein; hit if peak in difference spectrum three times higher than local noise
T1 construct: made in house; host or cells: E. coli BL21 (DE3) pLysS
T1 sequence (Q96NX5 1-320): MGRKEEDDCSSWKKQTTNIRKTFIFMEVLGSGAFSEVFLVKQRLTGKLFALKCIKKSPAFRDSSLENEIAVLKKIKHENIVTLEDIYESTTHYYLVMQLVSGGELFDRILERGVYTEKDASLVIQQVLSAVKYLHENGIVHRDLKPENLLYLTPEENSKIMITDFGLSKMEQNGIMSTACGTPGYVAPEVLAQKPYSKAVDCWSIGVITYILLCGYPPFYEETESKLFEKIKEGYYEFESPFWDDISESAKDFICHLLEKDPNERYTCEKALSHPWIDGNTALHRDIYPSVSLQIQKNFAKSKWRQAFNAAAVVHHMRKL
Outline: as §1

IDO1 (1-435) = target: T2, IDO1 (1-435) (Homo sapiens, UniProt P14902); assay: STD-NMR fragment screening, IDO1; assay type: binding; details: 1 mM fragment, 20 µM protein; hit if peak in difference spectrum three times higher than local noise
T2 construct: His-tag of pET15b with TEV site (thrombin site replaced) (cleaved yes); made in house; host or cells: E. coli Rosetta 2 (DE3) pLysS
T2 sequence (P14902 whole entry, the tested form may be a part): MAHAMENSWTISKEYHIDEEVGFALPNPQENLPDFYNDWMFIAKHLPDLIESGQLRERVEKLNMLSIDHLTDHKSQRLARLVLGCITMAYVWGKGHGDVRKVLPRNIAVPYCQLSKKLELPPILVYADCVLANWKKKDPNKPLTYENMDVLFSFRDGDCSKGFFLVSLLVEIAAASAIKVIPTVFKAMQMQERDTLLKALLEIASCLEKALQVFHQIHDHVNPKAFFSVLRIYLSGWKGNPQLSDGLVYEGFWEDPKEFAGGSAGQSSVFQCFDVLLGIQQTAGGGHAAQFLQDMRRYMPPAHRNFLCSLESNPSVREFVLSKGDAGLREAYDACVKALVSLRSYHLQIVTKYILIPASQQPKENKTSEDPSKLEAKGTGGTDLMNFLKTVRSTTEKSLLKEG
Outline: as §1

DOT1L (1-416) = target: T3, DOT1L (1-416) (Homo sapiens, UniProt Q8TEK3); assay: STD-NMR fragment screening, DOT1L; assay type: binding; details: 1 mM fragment, 20 µM protein; hit if peak in difference spectrum three times higher than local noise
T3 construct: made in house; host or cells: E. coli BL21 (DE3) pLysS
T3 sequence (Q8TEK3 1-416): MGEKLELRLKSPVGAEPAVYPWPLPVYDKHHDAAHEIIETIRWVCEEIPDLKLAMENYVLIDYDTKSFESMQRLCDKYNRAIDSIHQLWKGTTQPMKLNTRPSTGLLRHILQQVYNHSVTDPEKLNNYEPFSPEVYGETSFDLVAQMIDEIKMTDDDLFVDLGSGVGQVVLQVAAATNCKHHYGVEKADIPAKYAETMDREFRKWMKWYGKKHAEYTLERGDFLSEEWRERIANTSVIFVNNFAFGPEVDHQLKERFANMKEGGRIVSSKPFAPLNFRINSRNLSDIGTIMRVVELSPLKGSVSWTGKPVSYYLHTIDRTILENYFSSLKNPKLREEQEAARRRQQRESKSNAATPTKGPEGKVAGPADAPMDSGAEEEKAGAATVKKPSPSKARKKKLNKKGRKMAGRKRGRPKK
Outline: as §1

AAK1 = AAK1 (Homo sapiens, UniProt Q2M2I8); assay: ITC validation, AAK1; assay type: binding; details: ITC, 25°C, 5% DMSO, pH 7.4, duplicates
Sequence of AAK1 (Q2M2I8 46-315 limits assumed): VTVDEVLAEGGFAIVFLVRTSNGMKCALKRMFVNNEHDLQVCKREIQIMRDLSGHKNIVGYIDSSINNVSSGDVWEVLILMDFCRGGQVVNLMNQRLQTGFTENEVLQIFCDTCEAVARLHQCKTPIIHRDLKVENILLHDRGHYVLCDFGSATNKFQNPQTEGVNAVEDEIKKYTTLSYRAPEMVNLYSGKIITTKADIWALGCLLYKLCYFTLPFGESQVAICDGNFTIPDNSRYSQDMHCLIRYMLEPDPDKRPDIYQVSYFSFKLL
Description: (§2) The protein was buffer exchanged into 50 mM HEPES, 100 mM NaCl, 2 mM MgCl2, and 1 mM TCEP at pH 7.4. The protein was concentrated to 50–100 µM, and DMSO was added to a final concentration of 5% (^V/V). The fragments were dissolved in DMSO to yield a 100 mM stock solution, which was further diluted with buffer to yield a 5 mM solution also containing 5% (^V/V) DMSO. A MicroCal iTC200 (Malvern) instrument was used with the measuring cell set to 25°C, while the cooling jacket was set to 15°C. After a 120 s initial delay following temperature equilibration, a first injection with 0.5 µl over 2 s was done. […] The measurement was conducted using a needle stirring speed of 1,000 rpm and a reference heat rate of 10 μcal/s. Experiments were aborted, when the measuring cell was unable to reach a heat rate greater than 9 μcal/s during equilibration. Affinities were averaged from duplicates.

CAMK1G = target: T4, CAMK1G (Homo sapiens, UniProt Q96NX5); assay: ITC validation, CAMK1G; assay type: binding; details: ITC, 25°C, 5% DMSO, pH 7.4, duplicates; 7405: fragment concentration reduced to 2 mM
T4 construct: made in house; host or cells: E. coli BL21 (DE3) pLysS
T4 sequence (Q96NX5 1-320): as the sequence (Q96NX5 1-320) above
Description: as §2

IDO1 = target: T5, IDO1 (Homo sapiens, UniProt P14902); assay: ITC validation, IDO1; assay type: binding; details: ITC, 25°C, 5% DMSO, pH 7.4, duplicates
T5 construct: His-tag of pET15b with TEV site (thrombin site replaced) (cleaved yes); made in house; host or cells: E. coli Rosetta 2 (DE3) pLysS
T5 sequence (P14902 whole entry): as the sequence (P14902 whole entry, the tested form may be a part) above
Description: (§3) The protein was buffer exchanged into 50 mM HEPES, 100 mM NaCl, 2 mM MgCl2, and 1 mM TCEP at pH 7.4. The protein was concentrated to 50–100 µM, and DMSO was added to a final concentration of 5% (^V/V). The fragments were dissolved in DMSO to yield a 100 mM stock solution, which was further diluted with buffer to yield a 5 mM solution also containing 5% (^V/V) DMSO. A MicroCal iTC200 (Malvern) instrument was used with the measuring cell set to 25°C, while the cooling jacket was set to 15°C. After a 120 s initial delay following temperature equilibration, a first injection with 0.5 µl over 2 s was done. Nineteen injections with 2 µl over 4 s were performed every 180 s ([Ruhmann et al., 2015]). The measurement was conducted using a needle stirring speed of 1,000 rpm and a reference heat rate of 10 μcal/s. Experiments were aborted, when the measuring cell was unable to reach a heat rate greater than 9 μcal/s during equilibration. Affinities were averaged from duplicates.

DOT1L = target: T6, DOT1L (Homo sapiens, UniProt Q8TEK3); assay: ITC validation, DOT1L; assay type: binding; details: 25°C, detection level >1 mM
T6 construct: made in house; host or cells: E. coli BL21 (DE3) pLysS
T6 sequence (Q8TEK3 1-416): as the sequence (Q8TEK3 1-416) above
Description: as §2

JNK2 = JNK2 (Homo sapiens, UniProt P45984); assay: ITC, JNK2; assay type: binding
Sequence of JNK2 (P45984 whole entry, species assumed): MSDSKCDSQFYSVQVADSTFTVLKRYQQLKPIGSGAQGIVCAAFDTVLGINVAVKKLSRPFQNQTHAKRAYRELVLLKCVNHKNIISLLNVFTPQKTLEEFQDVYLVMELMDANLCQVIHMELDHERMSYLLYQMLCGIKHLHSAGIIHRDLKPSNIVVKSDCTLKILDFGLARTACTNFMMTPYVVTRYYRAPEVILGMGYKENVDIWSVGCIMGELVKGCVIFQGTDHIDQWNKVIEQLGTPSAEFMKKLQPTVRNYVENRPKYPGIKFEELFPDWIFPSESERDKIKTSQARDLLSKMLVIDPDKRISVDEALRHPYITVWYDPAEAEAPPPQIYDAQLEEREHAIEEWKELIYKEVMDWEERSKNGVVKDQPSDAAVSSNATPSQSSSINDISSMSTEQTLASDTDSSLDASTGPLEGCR
Description: as §3

JNK3 = JNK3 (Homo sapiens, UniProt P53779); assay: ITC, JNK3; assay type: binding
Sequence of JNK3 (P53779 whole entry, species assumed): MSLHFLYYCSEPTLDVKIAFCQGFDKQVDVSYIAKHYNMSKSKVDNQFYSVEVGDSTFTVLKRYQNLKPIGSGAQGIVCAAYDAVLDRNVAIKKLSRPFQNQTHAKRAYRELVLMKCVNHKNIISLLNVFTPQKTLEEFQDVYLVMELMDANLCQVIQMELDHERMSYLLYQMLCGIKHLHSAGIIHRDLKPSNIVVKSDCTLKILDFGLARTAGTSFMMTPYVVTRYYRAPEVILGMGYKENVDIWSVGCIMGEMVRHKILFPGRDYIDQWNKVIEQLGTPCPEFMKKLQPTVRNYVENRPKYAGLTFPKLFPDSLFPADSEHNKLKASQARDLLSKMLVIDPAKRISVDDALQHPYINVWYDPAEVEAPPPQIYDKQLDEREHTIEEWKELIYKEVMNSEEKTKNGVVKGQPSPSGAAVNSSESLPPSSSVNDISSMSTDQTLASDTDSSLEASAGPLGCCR
Description: as §3

[1] = GSH stability assay (HPLC); assay type: physicochemical; details: t1/2 > 20 h defined as sufficiently stable
Description: A 500 µM fragment solution in PBS buffer pH 7.4, 10% acetonitrile and 200 µM indoprofen as an internal standard, was added to 10 mM GSH solution in a 1:2 ratio. The reaction temperature was 40°C. […] The reaction of fragments with GSH was determined by measuring the decreasing area under the curve (AUC) of the compound relative to the internal standard indoprofen. The gradient was chosen depending on the polarity of fragments to be either one of the following: […]

Sequence of AAK1 (121-471) (Q2M2I8 46-315 limits assumed): as the sequence (Q2M2I8 46-315 limits assumed) above

In the case of `Cc1n[nH]c(C)c1I` [Fragment 0459], the STD-NMR hit (AAK1 (121-471)) is reported as “STD hit”, the STD-NMR hit (CAMK1G (1-320)) is reported as “STD hit” and the STD-NMR hit (IDO1 (1-435)) is reported as “STD hit”. The STD-NMR hit (DOT1L (1-416)) was “STD hit”, the Kd (AAK1) was 18 µM and the Kd (CAMK1G) was 190 µM. The KD (IDO1) was “too low to derive reliable affinity determination”, the Kd (IDO1) was > 1000 µM and the “ITC validation (KD)” value (DOT1L) was “None of these could be validated with ITC; also recorded: beyond the limits of ITC”.
In the case of `Clc1ncnc2cc[nH]c12` [Fragment 9595, 4-chloro-5H-pyrrolo[3,2-d]pyrimidine], the STD-NMR hit (AAK1 (121-471)) is reported as “binds”, the Kd (AAK1) is reported as 6 µM and the Kd (JNK2) is reported as 67 µM. For the same compound, the Kd (JNK3) was 130 µM and the “stability with GSH (in words)” value [1] was “sufficiently stable”.
In the case of `Cc1c(Cl)cnc(N)c1Cl` [Fragment 7405], the Kd (CAMK1G) is reported as 130 µM and the “ITC validation (KD)” value (DOT1L) is reported as “None of these could be validated with ITC”.
